How the values were obtained:
JAK1 = JAK1 (Homo sapiens, UniProt P23458); settings: cited from earlier work
[1] = Solubility of SHR0302 in water at varying pH values in phosphate and citrate buffer systems; format: physicochemical; settings: FIG. 2
Description: The solubility of SHR0302 was determined in water at varying pH values in various buffer systems. FIG. 2 illustrates a plot of SHR0302 concentration in μg/mL in water as a function of pH in two phosphate buffer systems and a citrate buffer system.

[2] = Solubility of SHR0302 in water at varying pH values in a phosphate buffer; format: physicochemical; settings: phosphate buffer system; FIG. 1
Description: The solubility of SHR0302 was determined in water at varying pH values in a phosphate buffer. FIG. 1 illustrates a plot of SHR0302 (also known as ARQ-250) concentration in μg/mL in water as a function of pH in a phosphate buffer system.

Sequence of JAK1 (P23458 whole entry): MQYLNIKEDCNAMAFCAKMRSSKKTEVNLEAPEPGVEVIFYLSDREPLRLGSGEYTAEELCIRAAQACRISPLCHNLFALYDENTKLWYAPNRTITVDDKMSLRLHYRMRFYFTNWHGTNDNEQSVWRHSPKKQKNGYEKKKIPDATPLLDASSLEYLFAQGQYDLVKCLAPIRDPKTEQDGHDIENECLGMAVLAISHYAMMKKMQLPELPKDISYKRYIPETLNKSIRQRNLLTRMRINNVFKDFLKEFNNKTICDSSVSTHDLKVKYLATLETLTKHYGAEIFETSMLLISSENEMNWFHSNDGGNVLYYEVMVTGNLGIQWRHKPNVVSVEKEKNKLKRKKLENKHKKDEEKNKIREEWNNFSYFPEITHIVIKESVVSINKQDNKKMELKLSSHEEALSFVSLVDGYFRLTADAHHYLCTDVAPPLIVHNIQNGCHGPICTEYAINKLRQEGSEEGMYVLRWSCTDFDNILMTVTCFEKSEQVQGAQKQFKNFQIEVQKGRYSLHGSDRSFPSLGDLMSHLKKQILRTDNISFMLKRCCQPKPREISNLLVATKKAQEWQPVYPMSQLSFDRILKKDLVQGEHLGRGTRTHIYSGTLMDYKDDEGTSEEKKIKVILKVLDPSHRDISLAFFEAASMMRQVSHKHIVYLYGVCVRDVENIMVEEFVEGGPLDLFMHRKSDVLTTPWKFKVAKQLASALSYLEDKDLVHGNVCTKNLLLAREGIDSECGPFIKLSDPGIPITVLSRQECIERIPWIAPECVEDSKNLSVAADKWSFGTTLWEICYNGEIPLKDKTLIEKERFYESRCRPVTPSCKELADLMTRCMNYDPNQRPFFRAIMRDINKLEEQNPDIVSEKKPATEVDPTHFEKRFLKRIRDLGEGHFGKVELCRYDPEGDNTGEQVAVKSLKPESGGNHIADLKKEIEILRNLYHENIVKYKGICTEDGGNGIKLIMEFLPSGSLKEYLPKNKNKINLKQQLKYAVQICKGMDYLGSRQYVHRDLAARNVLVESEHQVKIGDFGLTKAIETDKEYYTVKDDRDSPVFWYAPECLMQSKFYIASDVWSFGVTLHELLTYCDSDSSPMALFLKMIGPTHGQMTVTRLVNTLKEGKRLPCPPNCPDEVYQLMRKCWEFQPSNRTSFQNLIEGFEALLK

COc1nsc(NC(=O)N2C[C@H]3C[C@H](N(C)c4ncnc5[nH]ccc45)C[C@H]3C2)n1 [SHR0302, (3aR,5S,6aS)—N-(3-methoxyl-1,2,4-thiadiazol-5-yl)-5-(methyl(7H-pyrrolo[2,3-d]pyrimidin-4-yl)amino)hexahydrocyclopenta[c]pyrrole-2(1H)-carboxamide]
selectivity for JAK1 over JAK2 (JAK1; JAK1 over JAK2): high selectively for JAK1 over JAK2
inhibition of JAK1 (JAK1): potent
solubility in water as a function of pH [1]: decreases as pH levels increase
solubility in water as a function of pH [2]: decreases as pH levels increase

Source: patent US12161643B2, “Stable formulations of SHR0302” (ARCUTIS BIOTHERAPEUTICS, INC., priority 2021, dated 2024)
